What was measured:
[1] = biological target: T1, K316E/D391K/R459E GAC mutant (Mus musculus, UniProt D3Z7P3, D391K/K316E/R459E); assay: In vitro photo cross linking of SU-22 and purification of the conjugate; assay type: binding
T1 construct: (residues 72-603) was cloned into a pET23a vector; made in house
T1 sequence (D3Z7P3 72-603 isoform D3Z7P3-2 K316E/D391K/R459E): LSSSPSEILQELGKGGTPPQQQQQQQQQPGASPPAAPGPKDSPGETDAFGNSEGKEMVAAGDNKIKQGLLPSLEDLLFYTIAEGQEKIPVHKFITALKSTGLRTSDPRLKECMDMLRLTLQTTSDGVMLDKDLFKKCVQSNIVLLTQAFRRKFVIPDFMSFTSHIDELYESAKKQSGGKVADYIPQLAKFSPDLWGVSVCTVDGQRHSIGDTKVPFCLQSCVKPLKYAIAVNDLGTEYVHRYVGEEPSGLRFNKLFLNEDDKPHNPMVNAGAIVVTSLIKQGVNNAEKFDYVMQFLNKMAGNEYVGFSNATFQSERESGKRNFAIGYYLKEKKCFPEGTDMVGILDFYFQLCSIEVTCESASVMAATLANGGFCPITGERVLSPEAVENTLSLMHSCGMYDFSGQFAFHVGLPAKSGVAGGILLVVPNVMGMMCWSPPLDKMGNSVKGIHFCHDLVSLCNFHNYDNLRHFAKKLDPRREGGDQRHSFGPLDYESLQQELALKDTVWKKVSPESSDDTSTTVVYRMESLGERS
Experimental: Glutaminase proteins of the WT sequence, or containing the mutations D391K alone, or the mutations K316E/D391K/R459E, were purified as detailed in Example 3 supra. These glutaminase proteins were incubated with increasing concentrations of the compound SU-22, and excited with a hand held UV lamp for 120 seconds. Immediately following UV exposure, samples were loaded onto a 4-20% Tris-Glycine polyacrylamide gel after the addition of SDS-PAGE sample buffer (50 mM Tris-HCl (pH=6.8), 2% SDS, 10% glycerol, 1% β-mercaptoethanol, 12.5 mM EDTA, 0.02% bromophenol blue), and visualized on a UV light box.
Conditions of in vitro cross linking of WT GAC, and the K316E/D391K/R459E GAC mutant were adapted for efficient cross linking and purification of the cross linked protein product. WT GAC and the K316E/D391K/R459E GAC mutant, both containing the N-terminal His-tag, were diluted to a concentration of 100 nM in 20 mM Tris-HCl (pH=8.6) 100 mM NaCl, upon which 10 μM of SU-22 was added. […] The purified cross linked protein was then concentrated using spin columns with a 30 kD molecular weight cutoff and quantified using UV-vis spectroscopy, where the protein was quantified using the A280 (ε280=38,850 M−1 cm−1) and the cross-linked SU-22 using the A350 (ε350=18,900 M−1 cm−1). […]

[2] = test system: glutamine metabolism in Dbl-MEFs; assay: Metabolic tracing, mass isotopologue distribution with [U-13C]glutamine or [U-13C]glucose; assay type: cell-based, mouse
Experimental: Methods for mass isotopologue distribution analyses using [U-^13C]glutamine or [U-^13C]glucose (Cambridge Isotope Laboratories) were adapted from Cheng et al., “Pyruvate Carboxylase Is Required for Glutamine-Independent Growth of Tumor Cells,” Proc. Natl. Acad. Sci. 108:8674-79 (2011), which is hereby incorporated by reference in its entirety. Briefly, induced (16 hours in complete media without Dox) or non-induced cells (complete media with 1 μg/mL Dox) were plated into 100 mm^2 dishes at a density such that the cells were approximately 60% confluent when adhered, at which point the cells were washed with PBS and grown to 80% confluence in DMEM supplemented with 1% Tet-approved FBS and 8 μM 968/27 for drug treated samples, or 0.8% DMSO for control samples, with or without 1 μg/mL Dox (i.e. overnight). When 80% confluent, cells were then washed with PBS and ^13C-labeling media containing the appropriate drug, DMSO, and Dox concentrations. Media was prepared from glucose- and glutamine-free DMEM powder (Sigma) and supplemented with 1% Tet-approved FBS, 2 mM L[U-^13C]glutamine and 15 mM unlabeled glucose or 15 mM D[U-^13C]glucose and 2 mM unlabeled glutamine (FIGS. 2F-G), together with 1 μg/mL Dox for non-induced samples. For samples containing [U-^13C]glutamine, cells were incubated for 1 hour before extracting metabolites, whereas samples containing [U-^13C]glucose were incubated for 8 hours. Metabolites were extracted by first washing cells twice with ice cold normal saline (0.9% w/v NaCl), followed by addition of 0.5 mL of a 1:1 methanol:water mixture (−20° C.). An internal standard (50 nmol of 2-oxobutyrate) was added and samples were subjected to 3 freeze-thaw cycles, after which macromolecules were separated by centrifugation. The supernatant was evaporated completely and remaining metabolites silylated in 100 μL of a trimethylsilyl donor (Tri-Sil, Thermo) for 30 minutes at 42° C. Metabolites were subjected to GC-MS analysis using an Agilent 6970 gas chromatograph networked to an Agilent 5973 mass selective detector. Metabolites were identified and isotope enrichment calculated as described by Cheng et al., “Pyruvate Carboxylase Is Required for Glutamine-Independent Growth of Tumor Cells,” Proc. Natl. Acad. Sci. 108:8674-79 (2011), which is hereby incorporated by reference in its entirety.

[3] = 8 μM, non-induced and induced cells

| Structure (SMILES) | ratio of cross linked SU-22 to protein ([1]; 100 nM K316E/D391K/R459E GAC, 10 μM SU-22, UV, A350/A280) | efficiency of cross linking compared with dimer (D391K) or WT GAC ([1]; UV exposure, SDS-PAGE) | glucose labeling of citrate isotopologues (M+2) ([2]; 8 μM overnight, 8 hour [U-13C]glucose) | glutamate pool sizes [2, 3] | pool sizes of fumarate, malate, and citrate [2, 3] | glutamine-derived 13C isotopic enrichment within TCA cycle intermediates ([2]; Dbl-expressing cells, 8 μM overnight, 1 hour [U-13C]glutamine) |
| --- | --- | --- | --- | --- | --- | --- |
| CC1(C)CC(=O)C2=C(C1)c1c(ccc3cc4ccccc4cc13)NC2c1ccc(N=[N+]=[N-])cc1 (stereo not drawn) [SU-22] | 0.78 | more efficient |  |  |  |  |
| CN(C)c1ccc(C2Nc3ccc4ccccc4c3C3=C2C(=O)CC(C)(C)C3)cc1Br (stereo not drawn) [Compound 968] |  |  | inhibit | modest decrease | no effect | significant reductions |

Source: patent publication US10526322B2, “Inhibitors of kidney-type glutaminase, GLS-1” (CORNELL UNIVERSITY, priority 2014, dated 2020)
